According to patent US10494355B2, “Oxadiazole amine derivative compounds as histone deacetylase 6 inhibitor, and the pharmaceutical composition comprising the same” (Chong Kun Dang Pharmaceutical Corp., priority 2015, dated 2019):

Columns and labels:
human recombinant HDAC1 = biological target: T1, human recombinant HDAC1 (Homo sapiens, UniProt Q13547); test: HDAC1 enzyme activity inhibition assay (HDAC Fluorimetric Drug Discovery Kit); format: biochemical; settings: human recombinant HDAC1, 10 μM substrate, 30° C. 60 minutes
T1 construct: purchased Enzo Life Science BML-SE456
T1 sequence (Q13547 whole entry): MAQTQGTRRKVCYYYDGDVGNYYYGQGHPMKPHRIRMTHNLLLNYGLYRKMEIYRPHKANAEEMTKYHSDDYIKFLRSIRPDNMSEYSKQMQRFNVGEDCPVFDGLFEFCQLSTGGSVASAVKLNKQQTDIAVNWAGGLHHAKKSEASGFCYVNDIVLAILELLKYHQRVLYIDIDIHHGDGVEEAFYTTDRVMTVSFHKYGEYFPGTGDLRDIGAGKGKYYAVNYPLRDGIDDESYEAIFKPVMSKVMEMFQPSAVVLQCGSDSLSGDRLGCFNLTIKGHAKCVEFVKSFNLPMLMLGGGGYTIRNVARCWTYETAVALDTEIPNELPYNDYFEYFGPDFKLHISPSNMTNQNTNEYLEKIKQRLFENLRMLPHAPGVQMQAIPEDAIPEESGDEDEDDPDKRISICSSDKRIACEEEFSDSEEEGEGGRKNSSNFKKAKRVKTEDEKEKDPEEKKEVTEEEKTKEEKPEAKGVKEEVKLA
Summary of the method: (§1)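 Human recombinant enzyme, 0.3 μg, incubated with 10 μM Fluor de Lys-SIRT1 substrate and 5-fold compound dilutions at 30° C for 60 min. Developer II added for 30 min, then fluorescence read (Ex 360/Em 460). IC50 values derived from the fluorescence data.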

human recombinant HDAC6 = biological target: T2, human recombinant HDAC6 (Homo sapiens, UniProt Q9UBN7); test: HDAC6 enzyme activity inhibition assay (HDAC Fluorimetric Drug Discovery Kit); format: biochemical; settings: 30° C. 60 minutes
T2 construct: purchased Calbiochem 382180
T2 sequence (Q9UBN7 1-1215): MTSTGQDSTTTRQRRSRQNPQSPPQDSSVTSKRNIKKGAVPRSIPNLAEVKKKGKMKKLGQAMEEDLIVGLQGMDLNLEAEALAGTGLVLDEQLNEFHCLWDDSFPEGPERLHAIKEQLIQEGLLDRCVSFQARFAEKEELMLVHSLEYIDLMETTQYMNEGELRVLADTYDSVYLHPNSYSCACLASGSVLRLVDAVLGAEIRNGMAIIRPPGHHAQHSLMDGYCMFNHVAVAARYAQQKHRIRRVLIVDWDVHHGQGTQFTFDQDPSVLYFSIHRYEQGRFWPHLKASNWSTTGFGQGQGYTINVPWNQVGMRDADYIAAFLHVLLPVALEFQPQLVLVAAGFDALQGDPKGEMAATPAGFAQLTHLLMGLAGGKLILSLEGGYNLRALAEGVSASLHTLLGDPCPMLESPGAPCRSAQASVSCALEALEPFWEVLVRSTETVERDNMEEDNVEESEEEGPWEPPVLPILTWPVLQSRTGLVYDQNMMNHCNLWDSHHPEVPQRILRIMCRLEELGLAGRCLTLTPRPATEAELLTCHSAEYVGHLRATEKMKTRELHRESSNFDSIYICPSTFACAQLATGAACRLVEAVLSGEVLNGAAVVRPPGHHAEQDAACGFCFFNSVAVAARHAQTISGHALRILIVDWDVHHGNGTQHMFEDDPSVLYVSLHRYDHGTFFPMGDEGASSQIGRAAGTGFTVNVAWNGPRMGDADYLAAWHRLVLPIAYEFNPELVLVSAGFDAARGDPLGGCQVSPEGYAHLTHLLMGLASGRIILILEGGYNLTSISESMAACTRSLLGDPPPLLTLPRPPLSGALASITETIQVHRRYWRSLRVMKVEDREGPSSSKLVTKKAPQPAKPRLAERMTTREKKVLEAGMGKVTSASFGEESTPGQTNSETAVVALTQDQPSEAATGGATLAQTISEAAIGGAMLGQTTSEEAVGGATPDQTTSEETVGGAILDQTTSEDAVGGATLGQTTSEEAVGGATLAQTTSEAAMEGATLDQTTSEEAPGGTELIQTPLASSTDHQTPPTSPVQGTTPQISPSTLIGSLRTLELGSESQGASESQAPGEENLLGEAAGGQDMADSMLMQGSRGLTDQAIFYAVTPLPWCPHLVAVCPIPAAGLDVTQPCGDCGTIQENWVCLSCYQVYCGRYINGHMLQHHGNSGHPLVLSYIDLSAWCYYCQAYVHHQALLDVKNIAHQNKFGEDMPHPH
Summary of the method: as §1

| SMILES | IC50 (human recombinant HDAC1) [nM] | IC50 (human recombinant HDAC6) [nM] |
| --- | --- | --- |
| FC(F)(F)c1cccc(C2(Nc3ncc(-c4nnc(C(F)(F)F)o4)cn3)CC2)c1 [Compound 1741, 5-(5-(trifluoromethyl)-1,3,4-oxadiazol-2-yl)-N-(1-(3-(trifluoromethyl)phenyl)cyclopropyl)pyrimidin-2-amine] | > 10000 | 450 |
| FC(F)c1nnc(-c2cnc(NC3(c4ccccc4C(F)(F)F)CCC3)nc2)o1 [Compound 2042, 5-(5-(difluoromethyl)-1,3,4-oxadiazol-2-yl)-N-(1-(2-(trifluoromethyl)phenyl)cyclobutyl)pyrimidin-2-amine] | > 10000 | 173 |
| FC(F)c1nnc(-c2cnc(NC3(c4ccc(Cl)cc4Cl)CCC3)nc2)o1 [Compound 1836, N-(1-(2,4-dichlorophenyl)cyclobutyl)-5-(5-(difluoromethyl)-1,3,4-oxadiazol-2-yl)pyrimidin-2-amine] | > 10000 | 200 |
| FC(F)(F)c1ccc(C2(Nc3ncc(-c4nnc(C(F)(F)F)o4)cn3)CC2)cc1 [Compound 1742, 5-(5-(trifluoromethyl)-1,3,4-oxadiazol-2-yl)-N-(1-(4-(trifluoromethyl)phenyl)cyclopropyl)pyrimidin-2-amine] | > 10000 | 531 |
| Cc1ccc(C2(Nc3ncc(-c4nnc(C(F)(F)F)o4)cn3)CCC2)cc1 [Compound 1676, N-(1-(p-tolyl)cyclobutyl)-5-(5-(trifluoromethyl)-1,3,4-oxadiazol-2-yl)pyrimidin-2-amine] | > 10000 | 242 |
| FC(F)c1nnc(-c2cnc(NC3(Cc4ccccc4)CCC3)nc2)o1 [Compound 2030, N-(1-benzylcyclobutyl)-5-(5-(difluoromethyl)-1,3,4-oxadiazol-2-yl)pyrimidin-2-amine] | > 10000 | 758 |
| COc1cccc(C2(Nc3ncc(-c4nnc(C(F)F)o4)cn3)CC2)c1 [Compound 2048, 5-(5-(difluoromethyl)-1,3,4-oxadiazol-2-yl)-N-(1-(3-methoxyphenyl)cyclopropyl)pyrimidin-2-amine] | > 10000 | 63 |
| FC(F)c1nnc(-c2cnc(NC3(c4ccsc4)CCC3)nc2)o1 [Compound 2038, 5-(5-(difluoromethyl)-1,3,4-oxadiazol-2-yl)-N-(1-(thiophen-3-yl)cyclobutyl)pyrimidin-2-amine] | > 10000 | 111 |
| FC(F)(F)c1nnc(-c2cnc(NC3(c4ccccc4)CCCC3)nc2)o1 [Compound 1580, N-(1-phenylcyclopentyl)-5-(5-(trifluoromethyl)-1,3,4-oxadiazol-2-yl)pyrimidin-2-amine] | > 10000 | 305 |
| FC(F)c1nnc(-c2cnc(NC3(c4c(Cl)cccc4Cl)CCC3)nc2)o1 [Compound 1838, N-(1-(2,6-dichlorophenyl)cyclobutyl)-5-(5-(difluoromethyl)-1,3,4-oxadiazol-2-yl)pyrimidin-2-amine] | > 10000 | 110 |
| CN1CCC(c2ccc(C3(Nc4ncc(-c5nnc(C(F)F)o5)cn4)CCC3)cc2)CC1 [Compound 2035, 5-(5-(difluoromethyl)-1,3,4-oxadiazol-2-yl)-N-(1-(4-(1-methylpiperidin-4-yl)phenyl)cyclobutyl)pyrimidin-2-amine] | > 10000 | 367 |
| FC(F)c1nnc(-c2cnc(NC3(c4ccc(Cl)cc4)CCC3)nc2)o1 [Compound 1616, N-(1-(4-chlorophenyl)cyclobutyl)-5-(5-(difluoromethyl)-1,3,4-oxadiazol-2-yl)pyrimidin-2-amine] | > 10000 | 44 |
| Fc1ccc(C2(Nc3ncc(-c4nnc(C(F)(F)F)o4)cn3)CC2)cc1F [Compound 1780, N-(1-(3,4-difluorophenyl)cyclopropyl)-5-(5-(trifluoromethyl)-1,3,4-oxadiazol-2-yl)pyrimidin-2-amine] | > 10000 | 420 |
| FC(F)c1nnc(-c2cnc(NC3(c4cccc(Cl)c4)CCC3)nc2)o1 [Compound 1615, N-(1-(3-chlorophenyl)cyclobutyl)-5-(5-(difluoromethyl)-1,3,4-oxadiazol-2-yl)pyrimidin-2-amine] | > 10000 | 22 |
| Fc1ccc(C2(Nc3ncc(-c4nnc(C(F)F)o4)cn3)CC2)cc1Cl [Compound 1722, N-(1-(3-chloro-4-fluorophenyl)cyclopropyl)-5-(5-(difluoromethyl)-1,3,4-oxadiazol-2-yl)pyrimidin-2-amine] | > 10000 | 29 |
| FC(F)c1nnc(-c2cnc(NC3(c4cccs4)CC3)nc2)o1 [Compound 2040, 5-(5-(difluoromethyl)-1,3,4-oxadiazol-2-yl)-N-(1-(thiophen-2-yl)cyclopropyl)pyrimidin-2-amine] | > 10000 | 100 |
| FC(F)(F)c1nnc(-c2cnc(NC3(c4ccc(Cl)c(Cl)c4)CCC3)nc2)o1 [Compound 1835, N-(1-(3,4-dichlorophenyl)cyclobutyl)-5-(5-(trifluoromethyl)-1,3,4-oxadiazol-2-yl)pyrimidin-2-amine] | > 10000 | 1960 |
| Fc1ccc(C2(Nc3ncc(-c4nnc(C(F)F)o4)cn3)CCC2)c(Cl)c1 [Compound 1959, N-(1-(2-chloro-4-fluorophenyl)cyclobutyl)-5-(5-(difluoromethyl)-1,3,4-oxadiazol-2-yl)pyrimidin-2-amine] | > 10000 | 163 |
| FC(F)(F)c1nnc(-c2cnc(NC3(c4cccc(Cl)c4)CC3)nc2)o1 [Compound 2051, N-(1-(3-chlorophenyl)cyclopropyl)-5-(5-(trifluoromethyl)-1,3,4-oxadiazol-2-yl)pyrimidin-2-amine] | > 10000 | 152 |
| FC(F)(F)c1nnc(-c2cnc(NC3(c4ccc(Cl)cc4)CCC3)nc2)o1 [Compound 1618, N-(1-(4-chlorophenyl)cyclobutyl)-5-(5-(trifluoromethyl)-1,3,4-oxadiazol-2-yl)pyrimidin-2-amine] | > 10000 | 267 |
| Fc1c(Cl)cccc1C1(Nc2ncc(-c3nnc(C(F)(F)F)o3)cn2)CCC1 [Compound 1966, N-(1-(3-chloro-2-fluorophenyl)cyclobutyl)-5-(5-(trifluoromethyl)-1,3,4-oxadiazol-2-yl)pyrimidin-2-amine] | > 10000 | 1470 |
| CC(C)N1CCC(c2ccc(C3(Nc4ncc(-c5nnc(C(F)F)o5)cn4)CCC3)cc2)CC1 [Compound 2037, 5-(5-(difluoromethyl)-1,3,4-oxadiazol-2-yl)-N-(1-(4-(1-isopropylpiperidin-4-yl)phenyl)cyclobutyl)pyrimidin-2-amine] | > 10000 | 397 |
| Fc1cccc(C2(Nc3ncc(-c4nnc(C(F)F)o4)cn3)CCC2)c1F [Compound 1827, 5-(5-(difluoromethyl)-1,3,4-oxadiazol-2-yl)-N-(1-(2,3-difluorophenyl)cyclobutyl)pyrimidin-2-amine] | > 10000 | 43 |
| FC(F)c1nnc(-c2cnc(NC3(c4ccc(Cl)c(Cl)c4)CCC3)nc2)o1 [Compound 1834, N-(1-(3,4-dichlorophenyl)cyclobutyl)-5-(5-(difluoromethyl)-1,3,4-oxadiazol-2-yl)pyrimidin-2-amine] | > 10000 | 120 |
| Fc1cc(F)cc(C2(Nc3ncc(-c4nnc(C(F)F)o4)cn3)CC2)c1 [Compound 2057, 5-(5-(difluoromethyl)-1,3,4-oxadiazol-2-yl)-N-(1-(3,5-difluorophenyl)cyclopropyl)pyrimidin-2-amine] | > 10000 | 33 |
